The values below are quoted from earlier work in patent publication US20120245552A1, “Combination Therapy” (POP TEST CORTISOL LLC, priority 2011, published 2012).

One series deals with T1, GCR (Homo sapiens, UniProt P04150).
T1 sequence (P04150 1-777): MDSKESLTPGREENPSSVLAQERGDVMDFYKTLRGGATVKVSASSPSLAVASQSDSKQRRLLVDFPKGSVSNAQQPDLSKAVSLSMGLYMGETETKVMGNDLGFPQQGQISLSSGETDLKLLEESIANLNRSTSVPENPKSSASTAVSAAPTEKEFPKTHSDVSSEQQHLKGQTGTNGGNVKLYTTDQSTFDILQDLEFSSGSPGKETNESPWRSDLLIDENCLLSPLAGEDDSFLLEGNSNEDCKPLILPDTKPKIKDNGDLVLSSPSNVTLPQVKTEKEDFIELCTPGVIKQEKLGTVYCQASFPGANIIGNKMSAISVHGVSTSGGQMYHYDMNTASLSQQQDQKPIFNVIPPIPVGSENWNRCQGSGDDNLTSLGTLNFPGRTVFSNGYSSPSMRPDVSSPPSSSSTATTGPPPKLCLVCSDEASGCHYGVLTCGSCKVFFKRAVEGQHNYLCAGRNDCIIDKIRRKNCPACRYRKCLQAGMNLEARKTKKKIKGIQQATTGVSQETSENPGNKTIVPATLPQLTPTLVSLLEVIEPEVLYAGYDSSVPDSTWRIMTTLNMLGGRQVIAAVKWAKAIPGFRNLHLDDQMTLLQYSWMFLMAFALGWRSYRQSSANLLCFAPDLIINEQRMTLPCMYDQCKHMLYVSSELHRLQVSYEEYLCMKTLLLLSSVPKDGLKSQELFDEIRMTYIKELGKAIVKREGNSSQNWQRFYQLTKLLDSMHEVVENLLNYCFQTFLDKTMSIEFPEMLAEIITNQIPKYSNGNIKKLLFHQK
The conditions noted are these: cited from earlier work.

In series [1] the test system is other related steroidal hormone receptors (such as those for estrogen and progesterone). As to conditions: cited from earlier work.
The conditions of series [2]: phase I and phase II clinical trials; cited from earlier work.

In the case of `CC#C[C@]1(O)CC[C@H]2[C@@H]3CCC4=CC(=O)CCC4=C3[C@@H](c3ccc4c(c3)OCO4)C[C@@]21C` [ORG 34517, (11β,17β)-11-(1,3-benzodioxol-5-yl)-17-hydroxy-17-(1-propynyl)estra-4,9-dien-3-one], the GCR binding affinity result on GCR is “high”. Also, the “cross-binding to other related steroidal hormone receptors” value in series [1] is “without significant cross-binding”. The “significant toxicities and side effects” value in series [2] is given as “none were identified”.
